# Results taken from PMC2743695 (BMC Structural Biology, 2009).
# Target: AlrBax (Dal1, alanine racemase from Bacillus anthracis Ames) (Bacillus anthracis, UniProt A0A6L7HC45)
# Settings: covalent (internal aldimine with Lys41); pH 6.5; chloride ion and acetate in active site
# AlrBax (Dal1, alanine racemase from Bacillus anthracis Ames), sequence (A0A6L7HC45 1-389 limits assumed): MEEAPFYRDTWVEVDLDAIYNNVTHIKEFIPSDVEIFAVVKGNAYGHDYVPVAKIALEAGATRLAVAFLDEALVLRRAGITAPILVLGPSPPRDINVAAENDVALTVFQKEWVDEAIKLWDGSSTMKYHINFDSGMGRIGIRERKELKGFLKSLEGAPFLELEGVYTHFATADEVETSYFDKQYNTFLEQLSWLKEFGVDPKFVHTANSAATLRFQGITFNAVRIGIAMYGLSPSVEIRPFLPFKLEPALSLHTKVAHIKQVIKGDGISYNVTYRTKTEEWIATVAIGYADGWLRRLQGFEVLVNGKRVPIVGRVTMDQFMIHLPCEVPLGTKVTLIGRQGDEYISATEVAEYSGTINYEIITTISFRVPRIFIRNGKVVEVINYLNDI
structure (smiles),measurement,value
Cc1ncc(COP(=O)(O)O)c(C=O)c1O [PLP],"X-ray crystal structure, 1.95 Å","In the AlrBax structure, Lys41 is seen covalently linked to the PLP cofactor"
